# Data as given in patent publication US20260285876A1, “MACROCYCLIC COMPOUNDS AS USP1 INHIBITORS” (GUANGDONG NEWOPP BIOPHARMACEUTICALS CO., LTD., priority 2023, published 2026).
# Biological target: T1, USP1/UAF1 (Homo sapiens, UniProt O94782)
# T1 construct: purchased R&D Systems
# Test: Deubiquitination assay for USP1/UAF1 (ubiquitin-rhodamine 110 substrate)
# Assay type: biochemical
# Details: 0.5 nM USP1/UAF1, 150 nM ubiquitin-rhodamine, 50% inhibition compared to DMSO control
# Method: Deubiquitination assay for USP1/UAF1: compounds described here were tested for their ability to inhibit USP1 deubiquitinase activity in this assay using ubiquitin-rhodamine 110 as the substrate. The assay was conducted in the assay buffer (50 mM Tris-HCl, pH 7.8, 0.5 mM EDTA, 0.1 mg/ml Bovine Serum Albumin, 1 mM DTT, 0.01% Tween-20) in 384 well plates. 0.5 nM USP1/UAF1 (R&D Systems) was incubated with compounds in dose response format for 10 minutes at room temperature. Then the reaction was initiated by addition of 150 nM ubiquitin-rhodamine (R&D Systems). The fluorescence intensity was read after 45 minutes at Ex488/Em535 by CLARIOstar (BMG Labtech). IC50 response curves were plotted.
# T1 sequence (O94782 whole entry): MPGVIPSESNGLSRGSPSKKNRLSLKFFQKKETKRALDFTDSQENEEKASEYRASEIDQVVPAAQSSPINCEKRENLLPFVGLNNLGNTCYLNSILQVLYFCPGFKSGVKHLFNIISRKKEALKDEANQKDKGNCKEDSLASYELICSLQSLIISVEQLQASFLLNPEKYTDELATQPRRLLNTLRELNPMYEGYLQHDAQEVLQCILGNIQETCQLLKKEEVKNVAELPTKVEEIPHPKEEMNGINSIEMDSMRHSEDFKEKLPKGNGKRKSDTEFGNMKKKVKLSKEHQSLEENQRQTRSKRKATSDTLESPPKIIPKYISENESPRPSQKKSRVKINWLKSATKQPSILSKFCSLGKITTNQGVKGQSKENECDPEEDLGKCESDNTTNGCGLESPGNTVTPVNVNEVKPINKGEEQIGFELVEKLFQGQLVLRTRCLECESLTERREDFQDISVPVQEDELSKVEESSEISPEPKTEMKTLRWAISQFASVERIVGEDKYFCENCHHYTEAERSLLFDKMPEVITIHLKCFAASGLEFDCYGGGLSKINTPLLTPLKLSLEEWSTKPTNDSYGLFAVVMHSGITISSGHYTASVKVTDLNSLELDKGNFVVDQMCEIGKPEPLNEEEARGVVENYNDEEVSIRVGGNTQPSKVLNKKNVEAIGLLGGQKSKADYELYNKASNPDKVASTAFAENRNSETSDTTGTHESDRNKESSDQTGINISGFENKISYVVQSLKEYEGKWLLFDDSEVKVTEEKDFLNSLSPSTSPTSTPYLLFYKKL
# T1 sequence (Q8TAF3 whole entry partner): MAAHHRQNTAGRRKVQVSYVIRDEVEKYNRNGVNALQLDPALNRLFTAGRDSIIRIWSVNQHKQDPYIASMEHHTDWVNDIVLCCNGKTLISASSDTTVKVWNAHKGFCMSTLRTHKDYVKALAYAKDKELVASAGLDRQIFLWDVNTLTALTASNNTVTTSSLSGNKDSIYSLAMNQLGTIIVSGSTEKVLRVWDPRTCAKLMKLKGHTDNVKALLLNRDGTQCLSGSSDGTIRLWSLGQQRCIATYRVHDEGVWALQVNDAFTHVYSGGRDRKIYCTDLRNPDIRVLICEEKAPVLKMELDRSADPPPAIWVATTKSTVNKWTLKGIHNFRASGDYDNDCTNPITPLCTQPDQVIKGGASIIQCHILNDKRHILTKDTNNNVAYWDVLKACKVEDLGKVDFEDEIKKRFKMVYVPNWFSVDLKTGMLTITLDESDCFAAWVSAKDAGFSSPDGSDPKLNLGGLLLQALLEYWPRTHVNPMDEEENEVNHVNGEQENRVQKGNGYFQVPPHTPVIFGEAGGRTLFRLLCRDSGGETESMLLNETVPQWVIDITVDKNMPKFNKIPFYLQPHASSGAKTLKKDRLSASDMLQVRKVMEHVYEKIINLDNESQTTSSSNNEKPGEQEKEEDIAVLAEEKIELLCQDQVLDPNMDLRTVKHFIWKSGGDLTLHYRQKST
row,IC50 [µM],SMILES
1,≤ 0.1,"CC(C)n1cc(C(F)(F)F)nc1-c1ccc2c(c1)CCCOc1ncnc(C3CC3)c1-c1ncc3ccc(=O)n(c3n1)C2 [Example 25, 1^6-cyclopropyl-4^4-(1-isopropyl-4-(trifluoromethyl)-1H-imidazol-2-yl)-2^7,2^8-dihydro-8-oxa-2(2,8)-pyrido[2,3-d]pyrimidina-1(5,4)-pyrimidina-4(1,2)-benzenacyclooctaphan-2^7-one]"
2,≤ 0.1,"CC(C)n1cc(C(F)(F)F)nc1-c1ccc2c(c1)OCCOc1ncnc(C3CC3)c1-c1ncc3ccc(n3n1)C2 [Example 31, (Z)-1^6-cyclopropyl-4^4-(1-isopropyl-4-(trifluoromethyl)-1H-imidazol-2-yl)-5,8-dioxa-2(2,7)-pyrrolo[2,1-f][1,2,4]triazina-1(5,4)-pyrimidina-4(1,2)-benzenacyclooctaphane]"
3,≤ 0.1,"FC(F)(F)c1cn(C2CC2)c(-c2ccc3c(c2)CCCOc2ncnc(C4CC4)c2-c2ncc4ccc(n4n2)C3)n1 [Example 32, (Z)-1^6-cyclopropyl-4^4-(1-cyclopropyl-4-(trifluoromethyl)-1H-imidazol-2-yl)-8-oxa-2(2,7)-pyrrolo[2,1-f][1,2,4]triazina-1(5,4)-pyrimidina-4(1,2)-benzenacyclooctaphane]"
4,≤ 0.1,"CC(C)n1cc(C(F)(F)F)nc1-c1ccc2c(c1)NCCCOc1ncnc(C3CC3)c1-c1ncc3ccc(n3n1)C2 [Example 33, (Z)-1^6-cyclopropyl-4^4-(1-isopropyl-4-(trifluoromethyl)-1H-imidazol-2-yl)-9-oxa-5-aza-2(2,7)-pyrrolo[2,1-f][1,2,4]triazina-1(5,4)-pyrimidina-4(1,2)-benzenacyclononaphane]"
5,≤ 0.1,"CC(C)n1cc(C(F)(F)F)nc1-c1ccc2c(c1)NCCCOc1ncnc(C3CC3)c1-c1ncc3ccn(c3n1)C2 [Example 35, 1^6-cyclopropyl-4^4-(1-isopropyl-4-(trifluoromethyl)-1H-imidazol-2-yl)-2^7H-9-oxa-5-aza-2(2,7)-pyrrolo[2,3-d]pyrimidina-1(5,4)-pyrimidina-4(1,2)-benzenacyclononaphane]"
6,≤ 0.1,"FC(F)(F)c1cn(C2CC2)c(-c2ccc3c(c2)NCCCOc2ncnc(C4CC4)c2-c2ncc4ccc(n4n2)C3)n1 [Example 41, (Z)-1^6-cyclopropyl-4^4-(1-cyclopropyl-4-(trifluoromethyl)-1H-imidazol-2-yl)-9-oxa-5-aza-2(2,7)-pyrrolo[2,1-f][1,2,4]triazina-1(5,4)-pyrimidina-4(1,2)-benzenacyclononaphane]"
7,≤ 0.1,"FC(F)(F)c1cn(C2CC2)c(-c2ccc3c(c2)NCCOc2ncnc(C4CC4)c2-c2ncc4ccc(n4n2)C3)n1 [Example 42, (Z)-1^6-cyclopropyl-4^4-(1-cyclopropyl-4-(trifluoromethyl)-1H-imidazol-2-yl)-8-oxa-5-aza-2(2,7)-pyrrolo[2,1-f][1,2,4]triazina-1(5,4)-pyrimidina-4(1,2)-benzenacyclooctaphane]"

# The next lines start with the molecule.
row,SMILES,IC50 [µM]
1,"CC(C)n1cc(C(F)(F)F)nc1-c1ccc2c(c1)NCCCOc1cccc(C3CC3)c1-c1ncc3cnn(c3n1)C2 [Example 26, 1^6-cyclopropyl-4^4-(1-isopropyl-4-(trifluoromethyl)-1H-imidazol-2-yl)-2^1H-9-oxa-5-aza-2(6,1)-pyrazolo[3,4-d]pyrimidina-1,4(1,2)-dibenzenacyclononaphane]",≤ 0.1
2,"CC(C)n1cc(C(F)(F)F)nc1-c1ccc2c(c1)SCCOc1ncnc(C3CC3)c1-c1ncc3cnn(c3n1)C2 [Example 27, 1^6-cyclopropyl-4^4-(1-isopropyl-4-(trifluoromethyl)-1H-imidazol-2-yl)-2^1H-8-oxa-5-thia-2(6,1)-pyrazolo[3,4-d]pyrimidina-1(5,4)-pyrimidina-4(1,2)-benzenacyclooctaphane]",≤ 0.1
3,"CC(C)n1cc(C(F)(F)F)nc1-c1ccc2c(c1)COCCOc1ncnc(C3CC3)c1-c1ncc3cnn(c3n1)C2 [Example 28, 1^6cyclopropyl-4^4-(1-isopropyl-4-(trifluoromethyl)-1H-imidazol-2-yl)-2^1H-6,9-dioxa-2(6,1)-pyrazolo[3,4-d]pyrimidina-1(5,4)-pyrimidina-4(1,2)-benzenacyclononaphane]",≤ 0.1
4,"CC(C)n1cc(C(F)(F)F)nc1-c1ccc2cc1OCCOc1ncnc(C3CC3)c1-c1ncc3cnn(c3n1)C2 [Example 29, 1^6-cyclopropyl-44-(1-isopropyl-4-(trifluoromethyl)-1H-imidazol-2-yl)-2^1H-5,8-dioxa-2(6,1)-pyrazolo[3,4-d]pyrimidina-1(5,4)-pyrimidina-4(1,3)-benzenacyclooctaphane]",≤ 0.1
5,"CC(C)n1cc(C(F)(F)F)nc1-c1ccc2c(c1)/C=C/COc1ncnc(C3CC3)c1-c1ncc3cnn(c3n1)C2 [Example 30, (E)-1^6-cyclopropyl-4^4-(1-isopropyl-4-(trifluoromethyl)-1H-imidazol-2-yl)-2^1H-8-oxa-2(6,1)-pyrazolo[3,4-d]pyrimidina-1(5,4)-pyrimidina-4(1,2)-benzenacyclooctaphan-5-ene]",≤ 0.1
6,"Fc1cc2n3nc(ncc13)-c1c(ncnc1C1CC1)OCCOc1cc(-c3nc(C(F)(F)F)cn3C3CC3)ccc1C2 [Example 34, (Z)-1^6-cyclopropyl-4^4-(1-cyclopropyl-4-(trifluoromethyl)-1H-imidazol-2-yl)-2^5-fluoro-5,8-dioxa-2(2,7)-pyrrolo[2,1-f][1,2,4]triazina-1(5,4)-pyrimidina-4(1,2)-benzenacyclooctaphane]",≤ 0.1
7,"FC(F)(F)c1cc(C2CC2)n(-c2ccc3c(c2)NCCCOc2c(ncnc2C2CC2)-c2ncc4cnn(c4n2)C3)n1 [Example 36, 1-cyclopropyl-4-(5-cyclopropyl-3-(trifluoromethyl)-1H-pyrazol-1-yl)-21H-9-oxa-5-aza-2(6,1)-pyrazolo[3,4-d]pyrimidina-1(5,4)-pyrimidina-4(1,2)-benzenacyclononaphane]",≤ 0.1
8,"CC(C)c1cc(C(F)(F)F)nn1-c1ccc2c(c1)NCCCOc1ncnc(C3CC3)c1-c1ncc3cnn(c3n1)C2 [Example 37, 16-cyclopropyl-44-(5-isopropyl-3-(trifluoromethyl)-1H-pyrazol-1-yl)-21H-9-oxa-5-aza-2(6,1)-pyrazolo[3,4-d]pyrimidina-1(5,4)-pyrimidina-4(1,2)-benzenacyclononaphane]",≤ 0.1
9,"CC(C)n1cc(C(F)(F)F)nc1-c1ccc2cc1OCCCOc1ncnc(C3CC3)c1-c1ncc3cnn(c3n1)C2 [Example 38, 1^6-cyclopropyl-4^4-(1-isopropyl-4-(trifluoromethyl)-1H-imidazol-2-yl)-2^1H-5,9-dioxa-2(6,1)-pyrazolo[3,4-d]pyrimidina-1(5,4)-pyrimidina-4(1,3)-benzenacyclononaphane]",≤ 0.1
10,"FC(F)(F)c1cn(C2CC2)c(-c2ccc3c(c2)/C=C/COc2ncnc(C4CC4)c2-c2ncc4ccc(n4n2)C3)n1 [Example 39, (2^1Z,5E)-1^6-cyclopropyl-4^4-(1-cyclopropyl-4-(trifluoromethyl)-1H-imidazol-2-yl)-8-oxa-2(2,7)-pyrrolo[2,1-f][1,2,4]triazina-1(5,4)-pyrimidina-4(1,2)-benzenacyclooctaphan-5-ene]",0.1 to 1
11,"CC(C)n1cc(C(F)(F)F)nc1-c1ccc2cc1NCCOc1ncnc(C3CC3)c1-c1ncc3cnn(c3n1)C2 [Example 40, 1^6-cyclopropyl-4^4-(1-isopropyl-4-(trifluoromethyl)-1H-imidazol-2-yl)-2H-8-oxa-5-aza-2(6,1)-pyrazolo[3,4-d]pyrimidina-1(5,4)-pyrimidina-4(1,3)-benzenacyclooctaphane]",≤ 0.1
